Experimental data: ChEMBL document CHEMBL1144944, “Discovery of an orally efficacious inhibitor of coagulation factor Xa which incorporates a neutral P1 ligand” (J Med Chem, 2003)

Legend:
[1] = target: Coagulation factor X (Homo sapiens, UniProt P00742); assay: In vitro binding affinity for human Coagulation factor X
[2] = species on record: Homo sapiens; assay: Concentration of inhibitor required to double the activated partial thromboplastin time in human was determined; type: functional, organism-based
[3] = tested on: Caco-2; assay: Compound was tested in vitro for its percent absorption towards CaCo-2 cell monolayer; type: functional, cell-based; details: Homo sapiens
[4] = species on record: Canis familiaris; assay: Concentration of inhibitor required to double the activated partial thromboplastin time in dog was determined; type: functional, organism-based; details: Canis lupus familiaris
[5] = Maximum plasma concentration after peroral administration (10 mpk) was determined in dog; type: ADME, organism-based, Canis lupus familiaris; design: route oral; details: po, 10 mg/kg
[6] = Ionization constant is the negative logarithm of the equilibrium coefficient of the neutral and charged forms of the compound; type: physicochemical
[7] = target: Prothrombin (Homo sapiens, UniProt P00734); assay: Binding affinity towards thrombin
[8] = Half life period after peroral administration (10 mpk) was determined in dog; type: ADME, organism-based, Canis lupus familiaris; details: in vivo, po, 10 mg/kg
[9] = target: Serine protease 1 (Homo sapiens, UniProt P07477); assay: Binding affinity towards trypsin
[10] = Oral bioavailability in dog (dose 10 mg/kg); type: ADME, organism-based, Canis lupus familiaris; details: in vivo
[11] = Ionization constant was determined for the compound; type: physicochemical
[12] = Half life period after peroral administration (5 mpk) was determined in dog; type: ADME, organism-based, Canis lupus familiaris; details: in vivo, po, 5 mg/kg
[13] = Maximum plasma concentration after peroral administration (5 mpk) was determined in dog; type: ADME, organism-based, Canis lupus familiaris; design: route oral; details: po, 5 mg/kg
[14] = Percent oral bioavailability after peroral administration (5 mpk) was determined in dog; type: ADME, organism-based, Canis lupus familiaris; details: in vivo, 5 mg/kg

Coagulation factor X, sequence (P00742 41-179 limits assumed): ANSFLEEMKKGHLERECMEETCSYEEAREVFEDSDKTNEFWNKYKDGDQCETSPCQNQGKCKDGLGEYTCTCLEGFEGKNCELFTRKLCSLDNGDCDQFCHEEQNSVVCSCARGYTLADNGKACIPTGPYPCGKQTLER
Coagulation factor X, sequence (P00742 235-488 limits assumed): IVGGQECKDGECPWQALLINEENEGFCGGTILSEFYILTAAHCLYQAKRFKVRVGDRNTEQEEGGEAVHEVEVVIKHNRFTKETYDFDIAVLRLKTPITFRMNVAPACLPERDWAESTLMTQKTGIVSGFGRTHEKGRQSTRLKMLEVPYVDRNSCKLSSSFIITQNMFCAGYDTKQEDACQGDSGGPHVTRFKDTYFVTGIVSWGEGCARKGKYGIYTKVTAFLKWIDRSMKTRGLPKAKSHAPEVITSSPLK
Serine protease 1, sequence (P07477 whole entry): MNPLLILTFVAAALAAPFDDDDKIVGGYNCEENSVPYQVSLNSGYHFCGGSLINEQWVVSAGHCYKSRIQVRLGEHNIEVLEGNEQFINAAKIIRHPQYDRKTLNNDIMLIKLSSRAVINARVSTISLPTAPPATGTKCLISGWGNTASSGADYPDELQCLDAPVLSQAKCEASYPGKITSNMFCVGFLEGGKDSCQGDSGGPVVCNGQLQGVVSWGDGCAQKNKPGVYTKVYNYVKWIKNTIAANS

Row | Compound | Ki [1] | Ki [7] | Ki [9] | also measured
1 | O=C1CN(S(=O)(=O)c2cc3ccccc3s2)CCN1Cc1cc2c[nH]ccc-2n1 | 959 nM |  |  | 
2 | O=C1CN(S(=O)(=O)c2cc3ccc(Cl)cc3s2)CCN1Cc1cc2c[nH]ccc-2n1 |  | 2.9 µM | > 2900 nM | Concentration [2]: 2 µM; Absorption [3]: 6%; Concentration [4]: 5 µM; Cmax [5]: 658 nM; pKa [6]: 8.3; half-life [8]: 36 min; bioavailability [10]: 99%
3 | O=C1CN(S(=O)(=O)c2cc3ncccc3s2)CCN1Cc1cc2c[nH]ccc-2n1 | > 1200 nM |  |  | 
4 | O=C1CN(S(=O)(=O)c2sc3ccccc3c2Cl)CCN1Cc1cc2c[nH]ccc-2n1 | > 1200 nM |  |  | 
5 | O=C1CN(S(=O)(=O)c2cc3ccc(Cl)cc3s2)CCN1Cc1cc2cnccc2n1CCO |  |  |  | Cmax [5]: 783 nM; half-life [8]: 139 min; bioavailability [10]: 11%
6 | O=C(O)Cn1c(CN2CCN(S(=O)(=O)c3cc4ccc(Cl)cc4s3)CC2=O)cc2cnccc21 | 154 nM | > 3.9 µM | > 2900 nM | 
7 | Nc1[nH]ccc2nc(CN3CCN(S(=O)(=O)c4cc5ccc(Cl)cc5s4)CC3=O)cc1-2 |  | > 3.9 µM | > 2900 nM | pKa [11]: 9.3
8 | O=C1CN(S(=O)(=O)c2cc3ccc(Cl)cc3s2)CCN1Cc1cc2[nH]cccc-2n1 | > 1200 nM | > 3.9 µM | > 2900 nM | pKa [11]: 6.9
9 | O=C1CN(S(=O)(=O)c2cc3ncc(Cl)cc3s2)CCN1Cc1cc2c[nH]ccc-2n1 | 1200 nM |  |  | 
10 | O=C1CN(S(=O)(=O)c2ccc(-c3ccc(Cl)cc3)cc2)CCN1Cc1cc2c[nH]ccc-2n1 | > 1200 nM |  |  | 
11 | COc1cc(/C=C/S(=O)(=O)N2CCN(Cc3cc4c[nH]ccc-4n3)C(=O)C2)sc1Cl | > 1200 nM |  |  | 
12 | O=C1CN(S(=O)(=O)/C=C/c2ccc(Cl)s2)CCN1Cc1cc2c[nH]ccc-2n1 |  |  |  | Concentration [2]: 0.59 µM; half-life [12]: 52 min; Cmax [13]: 1640 nM; Concentration [4]: 2.2 µM; bioavailability [14]: 97%
13 | O=C1CN(S(=O)(=O)c2cc3ccc(Cl)cc3s2)CCN1Cc1nc2cc[nH]cc-2n1 | > 1200 nM | > 3.9 µM | > 2900 nM | pKa [11]: 6.1
14 | Cn1c(CN2CCN(S(=O)(=O)c3cc4ccc(Cl)cc4s3)CC2=O)cc2cnccc21 | 3 nM | > 3.9 µM | > 2900 nM | Absorption [3]: 3%
15 | O=C1CN(S(=O)(=O)/C=C/c2ccc(Cl)cc2)CCN1Cc1cc2c[nH]ccc-2n1 | 48 nM |  |  | 
16 | O=C1CN(S(=O)(=O)c2cc3ccc(Cl)cc3s2)CCN1Cc1cc2cc[nH]cc-2n1 | 45 nM | 3.9 µM | > 2900 nM | pKa [11]: 8
17 | O=C1CN(S(=O)(=O)c2cc3ccc(Cl)cc3s2)CCN1Cc1cc2cnccc2o1 | 1220 nM | > 3.9 µM | > 2900 nM | pKa [11]: 5.8
18 | O=C1CN(S(=O)(=O)c2cc3ccc(Cl)nc3s2)CCN1Cc1cc2c[nH]ccc-2n1 | 4 nM |  |  | 
19 | O=C1CN(S(=O)(=O)c2ccc(-c3ccc(Cl)s3)s2)CCN1Cc1cc2c[nH]ccc-2n1 | 23 nM |  |  | 
20 | NC(=O)Cn1c(CN2CCN(S(=O)(=O)c3cc4ccc(Cl)cc4s3)CC2=O)cc2cnccc21 | 8 nM | > 3.9 µM | > 2900 nM | Absorption [3]: 7%
21 | O=C1CN(S(=O)(=O)c2cc3cccnc3s2)CCN1Cc1cc2c[nH]ccc-2n1 | > 1200 nM |  |  | 
22 | O=C1CN(S(=O)(=O)c2cc3ccc(Cl)cc3s2)CCN1Cc1cc2c[n+]([O-])ccc2[nH]1 | 38 nM | > 3.9 µM | > 2900 nM | 
23 | COC(=O)Cn1c(CN2CCN(S(=O)(=O)c3cc4ccc(Cl)cc4s3)CC2=O)cc2cnccc21 | 18 nM | > 3.9 µM | > 2900 nM | Absorption [3]: 47.6%
24 | O=C1CN(S(=O)(=O)c2cc3ccc(Br)cc3s2)CCN1Cc1cc2c[nH]ccc-2n1 | 3 nM |  |  | 
25 | O=C1CN(S(=O)(=O)c2cc3ccc(Cl)cc3s2)CCN1Cc1cc2c(O)[nH]ccc-2n1 | > 1200 nM | > 3.9 µM | > 2900 nM | 
26 | O=C1CN(S(=O)(=O)CCc2ccc(Cl)s2)CCN1Cc1cc2c[nH]ccc-2n1 | 128 nM |  |  | 
